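96-well plates; 48 h exposure; 5 concentrations. Endpoints by linear interpolation between flanking doses. Not reached: highest tested concentration assigned. TGI: concentration producing complete growth inhibition.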
Legend:
Experiment in all cases: NCI tumour cell line growth inhibition, 48 h
SR leukemia = tested on: SR leukemia
KM12 colon = tested on: KM12 colon
786-0 renal = tested on: 786-0 renal
HCT-15 colon = tested on: HCT-15 colon
HCC-2998 colon = tested on: HCC-2998 colon
SF-268 CNS = tested on: SF-268 CNS
UO-31 renal = tested on: UO-31 renal
DU-145 prostate = tested on: DU-145 prostate
NCI-H522 lung = tested on: NCI-H522 lung
NCI-H460 lung = tested on: NCI-H460 lung
PC-3 prostate = tested on: PC-3 prostate
MALME-3M melanoma = tested on: MALME-3M melanoma
MDA-N = tested on: MDA-N
BT-549 breast = tested on: BT-549 breast
SK-MEL-5 melanoma = tested on: SK-MEL-5 melanoma
SW-620 colon = tested on: SW-620 colon
CAKI-1 renal = tested on: CAKI-1 renal

Structure (SMILES) | TGI (SR leukemia) [µM] | TGI (KM12 colon) [µM] | TGI (786-0 renal) [µM] | TGI (HCT-15 colon) [µM] | TGI (HCC-2998 colon) [µM] | TGI (SF-268 CNS) [µM] | TGI (UO-31 renal) [µM] | TGI (DU-145 prostate) [µM] | TGI (NCI-H522 lung) [µM] | TGI (NCI-H460 lung) [µM] | TGI (PC-3 prostate) [µM] | TGI (MALME-3M melanoma) [µM] | TGI (MDA-N) [µM] | TGI (BT-549 breast) [µM] | TGI (SK-MEL-5 melanoma) [µM] | TGI (SW-620 colon) [µM] | TGI (CAKI-1 renal) [µM]
CCCCCCCCCCCCCC/C(C(=O)O)=C(\C)C(=O)O | > 100 | > 100 | > 100 | > 100 | > 100 | > 100 | > 100 | > 100 | > 100 | > 100 | > 100 | > 100 | > 100 | > 100 | > 100 | > 100 | –
CNC(=O)OCC1=C(COC(=O)NC)CN(c2ccc(OC)cc2)C1 | > 100 | > 100 | > 100 | > 100 | > 100 | > 100 | > 100 | > 100 | – | > 100 | > 100 | > 100 | > 100 | > 100 | > 100 | > 100 | –
COc1ccc(OC)c2c1ccc1c(C)c3ccccc3c(C)c12 | > 100 | – | > 100 | > 100 | 45.8 | > 100 | > 100 | > 100 | > 100 | > 100 | > 100 | > 100 | > 100 | > 100 | – | – | > 100
COc1ccccc1CC1(O)OC(=O)c2ccccc21 (stereo not drawn) | > 100 | > 100 | > 100 | > 100 | > 100 | > 100 | > 100 | > 100 | > 100 | > 100 | > 100 | > 100 | > 100 | > 100 | > 100 | > 100 | > 100
N#CC(C#N)[C@@H]1CCC=C(Sc2ccccc2)[C@H]1Sc1ccccc1 | > 27.1 | 12.2 | 5.64 | 5.66 | 6.79 | 14.7 | 17.6 | 10.1 | 6.01 | 13.6 | 17.4 | 13.6 | 4.41 | 11.9 | 18.4 | – | 8.29
Oc1c(O)c(Cc2ccccc2)c(Cc2ccccc2)c(Cc2ccccc2)c1Cc1ccccc1 | > 10 | > 10 | > 10 | > 10 | > 10 | > 10 | > 10 | > 10 | > 10 | > 10 | > 10 | > 10 | > 10 | > 10 | > 10 | > 10 | > 10
COc1cccc(C=C(C#N)C#N)c1OC | > 100 | > 100 | > 100 | > 100 | > 100 | > 100 | > 100 | > 100 | > 100 | > 100 | > 100 | > 100 | > 100 | > 100 | > 100 | > 100 | > 100
NC(=S)NN=C1Cc2ccccc2C1 | > 100 | > 100 | > 100 | > 100 | > 100 | > 100 | > 100 | > 100 | > 100 | > 100 | > 100 | > 100 | > 100 | > 100 | > 100 | > 100 | > 100
O=C(O)c1ccc(C2=Nc3cccc4cccc(c34)N2)cc1 | > 100 | > 100 | > 100 | > 100 | > 100 | > 100 | > 100 | > 100 | > 100 | > 100 | > 100 | > 100 | > 100 | > 100 | > 100 | > 100 | > 100
CC(C)C(=O)/C=C/c1ccc(Cl)cc1Cl | > 100 | 13.7 | 27.2 | 25.2 | 30 | 22.5 | 23.5 | 27.2 | 22.8 | 23.4 | 32.8 | 28.2 | 7.06 | 14.9 | 27.9 | 7.92 | 24.8
Oc1cc(F)cc2cccnc12 | 2.86 | > 100 | > 100 | > 100 | > 100 | – | > 100 | > 100 | 3.16 | 29.3 | > 100 | > 100 | > 100 | 70.2 | 13.4 | > 100 | > 100
CCCCCCCCCCCCCCCCCCOC(COP(=O)(O)OCC1OC(n2cc(F)c(=O)[nH]c2=O)CC1O)COP(=O)(O)OCC1OC(n2ccc(N)nc2=O)C(O)C1O (stereo not drawn) | > 100 | > 100 | 28.1 | > 100 | > 70.5 | > 75 | > 100 | > 100 | > 100 | > 65.3 | 78.8 | > 100 | > 100 | > 93.2 | > 100 | > 100 | > 100
CCOC(=O)/C=C(/C(=O)OCC)n1cc(C)c(=O)[nH]c1=O | 5.24 | 29 | 8.28 | 4.92 | 17.5 | 24.6 | 23.5 | 29.7 | 2.14 | 29.4 | 20.6 | 4.48 | 17.7 | 22.8 | 21.1 | 4.84 | 2.57
COC(=O)C1=C(C(=O)OC)N(c2ccncc2)C(c2ccco2)=CC1c1ccccc1[N+](=O)[O-] (stereo not drawn) | 5.26 | 3.38 | 2.94 | 5.58 | 3.7 | 20.8 | 8.21 | 18 | 5.06 | 14.7 | 31 | 18.7 | 7.51 | 25.4 | – | – | 31.6

Reference: PubChem BioAssay (NCI)
